Laboratory results taken from ChEMBL document CHEMBL1201862, “PubChem BioAssay data set” (2004).
Activity calls are given as the source filed them.

Tests used:
[1] = target: T1, C-C chemokine receptor type 6 (Homo sapiens, UniProt P51684); experiment: antagonism of CCR6 beta-arrestin recruitment – cell-based, luminescent beta-arrestin readout, dose response (AID 504728); format: functional
T1 sequence (P51684 whole entry): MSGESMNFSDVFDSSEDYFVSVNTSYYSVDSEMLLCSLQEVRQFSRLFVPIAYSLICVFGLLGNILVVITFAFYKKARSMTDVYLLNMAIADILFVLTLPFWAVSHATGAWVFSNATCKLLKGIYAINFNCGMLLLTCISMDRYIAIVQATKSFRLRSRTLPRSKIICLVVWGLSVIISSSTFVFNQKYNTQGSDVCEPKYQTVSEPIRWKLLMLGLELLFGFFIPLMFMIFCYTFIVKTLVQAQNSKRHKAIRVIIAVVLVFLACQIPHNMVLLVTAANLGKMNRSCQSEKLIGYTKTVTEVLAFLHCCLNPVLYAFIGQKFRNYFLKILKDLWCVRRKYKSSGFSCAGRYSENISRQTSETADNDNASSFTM

Beta-galactosidase = Beta-galactosidase (Escherichia coli, UniProt Q8VNN2); experiment: detection-enzyme interference by beta-gal modulators – biochemical, E. coli enzyme, set 3, artefact control for CCR6 antagonist project, dose response (AID 504712); format: functional
Hexokinase HKDC1 = target: T2, Hexokinase HKDC1 (Homo sapiens, UniProt Q2TB90); experiment: inhibition of HKDC1 glucose phosphorylation – biochemical, W721R variant, dose response (AID 504729); format: functional
T2 sequence (Q2TB90 whole entry): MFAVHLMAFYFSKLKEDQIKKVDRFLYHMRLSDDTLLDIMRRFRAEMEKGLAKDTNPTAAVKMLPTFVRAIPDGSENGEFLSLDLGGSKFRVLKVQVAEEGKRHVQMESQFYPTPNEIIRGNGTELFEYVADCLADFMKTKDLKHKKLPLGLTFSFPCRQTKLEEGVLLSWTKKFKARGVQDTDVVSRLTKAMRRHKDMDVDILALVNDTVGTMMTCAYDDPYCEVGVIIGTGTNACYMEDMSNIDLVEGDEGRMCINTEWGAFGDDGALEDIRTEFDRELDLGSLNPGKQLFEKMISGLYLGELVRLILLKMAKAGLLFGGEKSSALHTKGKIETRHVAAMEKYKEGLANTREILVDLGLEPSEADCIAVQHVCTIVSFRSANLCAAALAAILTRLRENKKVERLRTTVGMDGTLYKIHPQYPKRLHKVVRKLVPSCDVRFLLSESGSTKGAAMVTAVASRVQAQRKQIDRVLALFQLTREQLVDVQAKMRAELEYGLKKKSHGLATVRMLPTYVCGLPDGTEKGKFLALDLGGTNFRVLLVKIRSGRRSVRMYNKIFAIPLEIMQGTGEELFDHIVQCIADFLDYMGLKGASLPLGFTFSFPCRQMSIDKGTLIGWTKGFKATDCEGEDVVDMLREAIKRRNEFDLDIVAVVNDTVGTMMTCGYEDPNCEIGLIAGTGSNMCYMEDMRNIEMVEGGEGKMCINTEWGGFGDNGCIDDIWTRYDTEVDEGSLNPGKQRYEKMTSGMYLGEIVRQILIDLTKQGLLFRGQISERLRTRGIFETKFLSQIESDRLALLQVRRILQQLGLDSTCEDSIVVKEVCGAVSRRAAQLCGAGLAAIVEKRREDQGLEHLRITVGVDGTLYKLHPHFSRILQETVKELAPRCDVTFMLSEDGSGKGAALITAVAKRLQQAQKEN

Cysteine protease ATG4B = target: T3, Cysteine protease ATG4B (Homo sapiens, UniProt Q9Y4P1); format: functional;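 note: Fluorescence-based dose-response confirmation assay measuring inhibition of ATG4B activity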
T3 sequence (Q9Y4P1 whole entry): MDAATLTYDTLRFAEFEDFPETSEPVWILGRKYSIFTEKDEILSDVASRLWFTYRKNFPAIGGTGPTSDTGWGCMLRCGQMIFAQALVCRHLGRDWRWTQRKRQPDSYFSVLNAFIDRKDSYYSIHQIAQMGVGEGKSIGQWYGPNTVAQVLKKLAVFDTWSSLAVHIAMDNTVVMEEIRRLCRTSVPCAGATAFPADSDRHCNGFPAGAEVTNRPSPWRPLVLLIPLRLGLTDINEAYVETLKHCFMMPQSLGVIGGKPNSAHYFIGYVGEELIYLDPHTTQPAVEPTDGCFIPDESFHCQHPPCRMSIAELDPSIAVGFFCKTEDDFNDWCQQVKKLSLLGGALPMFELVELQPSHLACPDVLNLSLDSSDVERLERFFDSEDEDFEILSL

Phospholipase A2 = Phospholipase A2 (Homo sapiens, UniProt P04054); format: functional;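 note: confirmatory dose-response counterscreen on phospholipase A2, testing hits that came from an ultra-high-throughput screen for ATG4B inhibitors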
Genome polyprotein = Genome polyprotein (dengue virus type 2, UniProt P29990); experiment: flavivirus cap methylation enzyme inhibition – biochemical, confirmation dose response, primary screen (AID 588689); format: functional
[2] = target: T4, Ubiquitin-conjugating enzyme E2 N (Homo sapiens, UniProt P61088); format: functional;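 note: Dose-response confirmation in a TR-FRET assay detecting UBC13-driven polyubiquitin chain formation, inhibition measured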
T4 sequence (P61088 whole entry): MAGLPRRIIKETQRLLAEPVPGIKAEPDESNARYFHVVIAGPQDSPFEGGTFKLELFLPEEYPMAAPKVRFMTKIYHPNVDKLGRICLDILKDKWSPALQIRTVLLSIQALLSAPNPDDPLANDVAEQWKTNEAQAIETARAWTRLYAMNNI

Melanocortin receptor 4 = Melanocortin receptor 4 (Homo sapiens, UniProt P32245); experiment: inhibitors of MC4R cAMP signaling – cell-based, TR-FRET, biased antagonists, dose response (AID 602298); format: functional;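 note: antagonist potency against agonist-stimulated cAMP production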
[3] = cAMP pathway inhibition in counterscreen cell line – TR-FRET cAMP detection, counter-screen for MC4R biased antagonist project, dose response (AID 602305); format: functional, cell-based;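 note: U2OS cells stimulated with forskolin near its EC80 as the cAMP inducer; potency is for inhibition of forskolin-stimulated cAMP signaling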
[4] = target: T5, DNA repair and recombination protein RAD54-like (Homo sapiens, UniProt Q92698); experiment: RAD54 Holliday junction migration blockers – biochemical, fluorescence, cherry-picked samples, dose series, confirmation (AID 651657); format: functional
T5 sequence (Q92698 whole entry): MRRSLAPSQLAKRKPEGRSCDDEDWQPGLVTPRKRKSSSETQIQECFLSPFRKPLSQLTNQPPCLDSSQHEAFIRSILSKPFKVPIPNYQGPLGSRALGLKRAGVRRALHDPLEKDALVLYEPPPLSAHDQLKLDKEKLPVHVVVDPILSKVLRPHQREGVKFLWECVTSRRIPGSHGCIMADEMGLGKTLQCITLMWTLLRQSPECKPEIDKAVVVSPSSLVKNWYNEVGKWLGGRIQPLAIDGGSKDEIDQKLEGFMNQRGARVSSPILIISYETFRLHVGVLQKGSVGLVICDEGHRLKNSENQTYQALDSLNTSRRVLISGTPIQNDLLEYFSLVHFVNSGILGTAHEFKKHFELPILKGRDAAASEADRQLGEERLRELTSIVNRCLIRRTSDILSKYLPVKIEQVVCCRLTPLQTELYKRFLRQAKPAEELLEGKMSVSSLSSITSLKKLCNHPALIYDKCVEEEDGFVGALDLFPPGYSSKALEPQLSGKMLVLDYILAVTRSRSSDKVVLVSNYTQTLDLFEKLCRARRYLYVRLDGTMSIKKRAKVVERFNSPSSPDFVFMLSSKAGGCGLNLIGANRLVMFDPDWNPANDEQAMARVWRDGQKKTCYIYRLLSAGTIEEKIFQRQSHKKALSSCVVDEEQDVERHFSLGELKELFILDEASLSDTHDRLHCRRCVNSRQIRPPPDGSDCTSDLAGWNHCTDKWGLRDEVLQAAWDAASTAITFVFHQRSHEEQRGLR

[5] = target: T6, High affinity choline transporter 1 (Homo sapiens, UniProt Q9GZV3); experiment: human choline transporter blockers, potency – cell-based, 5-point CRC, membrane potential dye, dose response (AID 504840); format: functional
T6 sequence (Q9GZV3 whole entry): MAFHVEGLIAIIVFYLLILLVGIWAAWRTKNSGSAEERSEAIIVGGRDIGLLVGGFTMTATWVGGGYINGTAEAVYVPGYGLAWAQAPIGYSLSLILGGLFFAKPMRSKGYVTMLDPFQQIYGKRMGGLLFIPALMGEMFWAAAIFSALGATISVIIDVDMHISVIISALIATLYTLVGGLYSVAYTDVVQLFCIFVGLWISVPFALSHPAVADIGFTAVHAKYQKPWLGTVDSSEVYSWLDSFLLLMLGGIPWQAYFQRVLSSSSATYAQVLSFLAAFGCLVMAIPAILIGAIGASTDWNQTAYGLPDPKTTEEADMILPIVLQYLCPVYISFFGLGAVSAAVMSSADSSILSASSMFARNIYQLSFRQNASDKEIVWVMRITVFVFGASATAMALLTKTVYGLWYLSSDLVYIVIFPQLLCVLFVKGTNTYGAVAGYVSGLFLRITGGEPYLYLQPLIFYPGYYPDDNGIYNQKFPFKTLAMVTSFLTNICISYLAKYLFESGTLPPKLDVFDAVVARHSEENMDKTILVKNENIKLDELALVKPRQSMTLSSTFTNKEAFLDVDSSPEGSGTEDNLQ

[6] = target: T6, High affinity choline transporter 1; experiment: human choline transporter blockers, potency – cell-based, 10-point CRC, membrane potential dye, dose response (AID 588401); format: functional;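 note: membrane potential dye fluorescence of choline-evoked depolarization via CHT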
[7] = A cytotoxicity screen of small molecule inhibitors of the PhoP region in Salmonella typhi identified in the primary screen. [Related pubchem assays: 1850, 1864, 1985 ]; format: functional
HEK293 = experiment: EBV LMP1 TES2 canonical NF-kB signalling blockers – cell-based, HEK293, luciferase, cherry-pick, dose response (AID 588343); format: functional; details: Homo sapiens
[8] = target: Ribosomal protein S6 kinase beta-1 (Homo sapiens, UniProt P23443); format: functional;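 note: measured as one member of a kinome-wide profiling panel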
[9] = target: Proto-oncogene tyrosine-protein kinase ROS (Homo sapiens, UniProt P08922); format: functional;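 note: ROS1 tested as one member of a kinome-wide kinase panel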
[10] = target: Dual specificity tyrosine-phosphorylation-regulated kinase 1A (Rattus norvegicus, UniProt Q63470); format: biochemical, Homo sapiens
[11] = target: 26S proteasome non-ATPase regulatory subunit 14 (Homo sapiens, UniProt O00487); experiment: inhibition of proteasome subunit RPN11 – biochemical, fluorescence polarization, uHTS hits, confirmation (AID 602368); format: functional
[12] = target: 72 kDa type IV collagenase (Homo sapiens, UniProt P08253); experiment: Dose Response validation of uHTS RPN11 inhibitor hits using a MMP-2 Fluorescence assay.; format: functional
Prothrombin = Prothrombin (Bos taurus, UniProt P00735); experiment: thrombin protease inhibitors – biochemical, fluorescence polarization, uHTS hits, dose response (AID 602369); format: functional
LIM domain kinase 1 = LIM domain kinase 1 (Homo sapiens, UniProt P53667); experiment: Navigating the Kinome. Panel member name: LIMK1; format: functional
[13] = target: Rho-associated protein kinase 1 (Homo sapiens, UniProt Q13464); format: functional;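 note: measured within a broad kinome-wide panel profiling many kinases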
[14] = target: Cyclin-dependent kinase 8 (Homo sapiens, UniProt P49336); experiment: Navigating the Kinome. Panel member name: CDK8; format: functional
[15] = target: Vascular endothelial growth factor receptor 1 (Homo sapiens, UniProt P17948); format: functional;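 note: measured within a kinome-wide profiling panel, FLT1 as the panel member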
[16] = target: Cyclin-dependent kinase 9 (Homo sapiens, UniProt P50750); format: functional;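 note: value from the CDK9 entry of a kinome-spanning kinase panel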
[17] = target: Dual specificity protein kinase CLK4 (Homo sapiens, UniProt Q9HAZ1); format: functional
[18] = viability of PTEN-deleted HCT116 cells – cell-based, HCT116 PTEN knockout, dose response (AID 1047); format: functional;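 note: HCT116 colon tumor cells with PTEN knocked out; cells exposed to compound for 60 hours before readout; potency for loss of cell viability measured by luminescence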
[19] = viability of HCT116 lacking mutant beta-catenin – cell-based, human colon tumor, dose response (AID 1045); format: functional;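 note: HCT116 colon tumor cells with beta catenin knocked out; cells exposed to compound for 60 hours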
Vero = experiment: cells; format: functional; details: Chlorocebus sabaeus
[20] = Trypanosoma cruzi growth suppression in host cells – NIH3T3 host cells, beta-gal luminescence, confirmation (AID 2044); format: functional, cell-based;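 note: intracellular parasites grown in NIH/3T3 mouse fibroblasts as host cells; luminescent beta-galactosidase reporter signal from transgenic T. cruzi replicating inside host cells; inhibitors lower the luminescence signal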
[21] = NIH3T3 cell viability loss – ATP luminescence, mouse fibroblasts, counter-screen, dose response (AID 2010); format: functional, cell-based;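 note: cells exposed to compound for about 90 hours before reading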

Chain of Beta-galactosidase (Q8VNN2 whole entry): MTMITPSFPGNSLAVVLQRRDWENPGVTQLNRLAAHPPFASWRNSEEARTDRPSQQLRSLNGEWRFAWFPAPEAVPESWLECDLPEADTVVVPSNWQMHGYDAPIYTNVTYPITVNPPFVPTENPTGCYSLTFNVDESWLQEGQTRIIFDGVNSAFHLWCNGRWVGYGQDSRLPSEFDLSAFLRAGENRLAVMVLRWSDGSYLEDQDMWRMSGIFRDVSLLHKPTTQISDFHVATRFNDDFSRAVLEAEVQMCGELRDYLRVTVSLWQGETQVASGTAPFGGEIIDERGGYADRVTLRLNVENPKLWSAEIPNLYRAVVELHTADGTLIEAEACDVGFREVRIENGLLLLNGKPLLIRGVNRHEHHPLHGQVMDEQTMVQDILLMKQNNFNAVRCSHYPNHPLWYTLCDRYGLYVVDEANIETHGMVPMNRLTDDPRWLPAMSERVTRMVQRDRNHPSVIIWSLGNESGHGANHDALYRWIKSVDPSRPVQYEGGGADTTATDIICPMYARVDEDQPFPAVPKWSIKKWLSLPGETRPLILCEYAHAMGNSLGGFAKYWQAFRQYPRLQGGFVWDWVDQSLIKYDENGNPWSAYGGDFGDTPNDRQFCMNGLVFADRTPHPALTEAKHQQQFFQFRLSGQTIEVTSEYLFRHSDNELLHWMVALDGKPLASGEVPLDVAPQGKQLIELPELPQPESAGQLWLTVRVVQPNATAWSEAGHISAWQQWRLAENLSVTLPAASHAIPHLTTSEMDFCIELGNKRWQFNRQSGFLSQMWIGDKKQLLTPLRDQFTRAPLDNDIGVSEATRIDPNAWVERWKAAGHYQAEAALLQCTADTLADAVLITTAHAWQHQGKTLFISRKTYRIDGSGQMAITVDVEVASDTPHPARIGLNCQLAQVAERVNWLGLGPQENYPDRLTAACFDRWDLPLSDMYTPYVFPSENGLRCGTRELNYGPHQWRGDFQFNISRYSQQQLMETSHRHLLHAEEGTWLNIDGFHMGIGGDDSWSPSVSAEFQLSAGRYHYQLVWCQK
Chain of Melanocortin receptor 4 (P32245 whole entry): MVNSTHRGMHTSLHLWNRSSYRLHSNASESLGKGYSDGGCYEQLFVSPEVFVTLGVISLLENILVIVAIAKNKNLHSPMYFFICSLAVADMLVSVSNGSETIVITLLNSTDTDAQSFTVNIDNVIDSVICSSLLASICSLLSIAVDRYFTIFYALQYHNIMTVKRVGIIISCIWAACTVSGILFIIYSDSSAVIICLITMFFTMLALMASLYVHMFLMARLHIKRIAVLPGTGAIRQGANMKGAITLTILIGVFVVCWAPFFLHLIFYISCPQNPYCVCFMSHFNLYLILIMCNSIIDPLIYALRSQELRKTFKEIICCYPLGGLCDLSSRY
Chain of Phospholipase A2 (P04054 whole entry): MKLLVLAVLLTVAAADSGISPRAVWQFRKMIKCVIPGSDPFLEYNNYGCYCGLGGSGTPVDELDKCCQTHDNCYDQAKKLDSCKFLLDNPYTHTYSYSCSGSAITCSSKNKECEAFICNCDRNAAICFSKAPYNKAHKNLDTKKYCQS
Chain of 72 kDa type IV collagenase (P08253 whole entry): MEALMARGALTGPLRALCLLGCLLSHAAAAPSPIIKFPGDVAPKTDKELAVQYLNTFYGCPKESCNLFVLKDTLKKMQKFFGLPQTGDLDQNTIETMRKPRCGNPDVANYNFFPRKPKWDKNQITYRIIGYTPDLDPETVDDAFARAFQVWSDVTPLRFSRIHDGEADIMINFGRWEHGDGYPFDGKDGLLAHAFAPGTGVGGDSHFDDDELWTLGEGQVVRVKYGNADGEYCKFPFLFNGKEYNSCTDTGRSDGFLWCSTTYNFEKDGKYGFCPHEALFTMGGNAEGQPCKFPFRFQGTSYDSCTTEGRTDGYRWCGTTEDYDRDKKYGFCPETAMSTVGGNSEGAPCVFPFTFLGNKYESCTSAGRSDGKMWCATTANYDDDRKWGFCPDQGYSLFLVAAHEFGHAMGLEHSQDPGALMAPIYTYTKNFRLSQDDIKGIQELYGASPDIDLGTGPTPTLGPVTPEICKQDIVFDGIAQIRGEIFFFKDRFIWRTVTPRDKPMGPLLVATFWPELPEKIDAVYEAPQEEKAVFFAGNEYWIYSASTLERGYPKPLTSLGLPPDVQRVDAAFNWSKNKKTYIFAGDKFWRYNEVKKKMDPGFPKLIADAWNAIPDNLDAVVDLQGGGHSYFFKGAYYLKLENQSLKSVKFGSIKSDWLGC
Chain of LIM domain kinase 1 (P53667 whole entry, the tested form may be a part): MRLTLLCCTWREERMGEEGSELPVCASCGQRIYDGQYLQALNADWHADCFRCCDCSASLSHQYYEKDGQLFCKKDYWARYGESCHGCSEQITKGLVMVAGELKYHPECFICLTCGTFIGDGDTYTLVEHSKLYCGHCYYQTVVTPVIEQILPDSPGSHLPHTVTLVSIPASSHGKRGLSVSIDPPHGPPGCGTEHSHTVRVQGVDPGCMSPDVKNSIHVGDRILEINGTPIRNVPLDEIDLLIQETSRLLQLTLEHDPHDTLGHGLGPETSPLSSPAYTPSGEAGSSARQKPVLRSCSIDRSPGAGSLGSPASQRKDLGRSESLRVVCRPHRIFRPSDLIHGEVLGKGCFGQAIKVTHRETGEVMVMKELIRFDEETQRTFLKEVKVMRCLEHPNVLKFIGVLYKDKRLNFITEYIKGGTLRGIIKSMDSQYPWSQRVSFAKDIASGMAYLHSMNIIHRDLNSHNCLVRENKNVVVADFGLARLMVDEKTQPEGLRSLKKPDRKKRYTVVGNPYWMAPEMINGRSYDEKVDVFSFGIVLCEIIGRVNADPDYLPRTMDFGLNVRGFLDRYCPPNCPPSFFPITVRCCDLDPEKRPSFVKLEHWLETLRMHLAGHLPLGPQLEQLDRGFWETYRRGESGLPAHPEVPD
Chain of Cyclin-dependent kinase 9 (P50750 whole entry): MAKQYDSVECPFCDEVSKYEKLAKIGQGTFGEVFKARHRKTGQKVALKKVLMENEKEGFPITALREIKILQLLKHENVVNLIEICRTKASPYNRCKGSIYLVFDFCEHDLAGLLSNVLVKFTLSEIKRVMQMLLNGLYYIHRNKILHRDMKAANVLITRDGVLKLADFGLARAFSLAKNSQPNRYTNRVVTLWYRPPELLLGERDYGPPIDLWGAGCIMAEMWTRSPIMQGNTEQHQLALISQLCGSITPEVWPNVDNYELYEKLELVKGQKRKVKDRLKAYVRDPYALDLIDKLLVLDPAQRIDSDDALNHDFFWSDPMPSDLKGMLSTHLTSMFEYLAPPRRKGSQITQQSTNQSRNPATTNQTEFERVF
Chain of Vascular endothelial growth factor receptor 1 (P17948 whole entry): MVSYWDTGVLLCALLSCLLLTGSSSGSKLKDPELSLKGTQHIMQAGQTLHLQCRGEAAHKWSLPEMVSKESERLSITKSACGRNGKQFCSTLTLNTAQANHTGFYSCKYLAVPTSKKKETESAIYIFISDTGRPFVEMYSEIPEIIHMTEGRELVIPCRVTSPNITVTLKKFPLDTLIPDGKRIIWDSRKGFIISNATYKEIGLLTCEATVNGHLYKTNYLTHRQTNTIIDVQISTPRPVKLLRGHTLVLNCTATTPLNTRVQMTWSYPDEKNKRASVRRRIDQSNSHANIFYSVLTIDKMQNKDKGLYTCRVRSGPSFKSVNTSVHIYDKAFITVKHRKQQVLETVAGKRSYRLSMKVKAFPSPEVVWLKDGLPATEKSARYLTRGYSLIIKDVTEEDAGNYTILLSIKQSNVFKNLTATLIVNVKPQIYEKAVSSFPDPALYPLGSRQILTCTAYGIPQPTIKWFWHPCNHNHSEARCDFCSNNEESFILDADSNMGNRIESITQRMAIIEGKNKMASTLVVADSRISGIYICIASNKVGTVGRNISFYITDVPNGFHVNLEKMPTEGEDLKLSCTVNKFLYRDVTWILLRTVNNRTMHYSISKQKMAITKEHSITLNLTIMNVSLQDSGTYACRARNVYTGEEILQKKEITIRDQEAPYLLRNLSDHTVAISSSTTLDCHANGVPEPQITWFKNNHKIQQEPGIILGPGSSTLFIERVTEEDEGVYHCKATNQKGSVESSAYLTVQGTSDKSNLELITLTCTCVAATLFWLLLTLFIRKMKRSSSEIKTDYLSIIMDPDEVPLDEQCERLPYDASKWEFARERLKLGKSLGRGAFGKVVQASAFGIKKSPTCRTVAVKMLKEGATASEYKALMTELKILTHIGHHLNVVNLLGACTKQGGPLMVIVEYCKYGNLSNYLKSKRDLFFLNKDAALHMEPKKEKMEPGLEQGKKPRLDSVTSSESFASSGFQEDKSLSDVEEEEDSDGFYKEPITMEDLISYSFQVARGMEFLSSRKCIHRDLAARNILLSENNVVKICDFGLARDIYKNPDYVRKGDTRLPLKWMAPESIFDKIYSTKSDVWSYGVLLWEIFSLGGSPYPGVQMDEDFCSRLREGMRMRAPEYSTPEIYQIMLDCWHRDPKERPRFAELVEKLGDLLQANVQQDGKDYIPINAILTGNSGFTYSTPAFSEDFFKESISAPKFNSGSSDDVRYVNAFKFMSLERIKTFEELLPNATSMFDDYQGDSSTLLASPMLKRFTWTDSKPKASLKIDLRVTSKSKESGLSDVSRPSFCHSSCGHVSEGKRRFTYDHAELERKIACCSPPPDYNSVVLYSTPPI
Chain of Dual specificity protein kinase CLK4 (Q9HAZ1 whole entry): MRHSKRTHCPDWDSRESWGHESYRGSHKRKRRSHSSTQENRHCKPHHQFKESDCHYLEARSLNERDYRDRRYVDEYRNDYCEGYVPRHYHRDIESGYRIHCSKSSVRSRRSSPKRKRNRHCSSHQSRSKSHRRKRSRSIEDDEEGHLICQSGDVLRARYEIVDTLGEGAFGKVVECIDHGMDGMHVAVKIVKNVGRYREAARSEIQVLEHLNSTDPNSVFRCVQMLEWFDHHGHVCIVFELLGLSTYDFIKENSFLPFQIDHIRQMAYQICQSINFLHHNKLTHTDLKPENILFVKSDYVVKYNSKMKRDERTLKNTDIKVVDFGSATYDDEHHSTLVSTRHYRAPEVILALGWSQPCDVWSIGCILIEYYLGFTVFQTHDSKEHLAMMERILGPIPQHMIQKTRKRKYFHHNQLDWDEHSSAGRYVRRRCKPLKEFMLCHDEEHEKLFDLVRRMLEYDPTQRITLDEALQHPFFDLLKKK

COC1=C(Br)C(=O)c2ncccc2C1=O
IC50 [1]: > 66.6 µM (inactive)
IC50 (Beta-galactosidase): > 66.6 µM (inactive)
IC50 (Hexokinase HKDC1): 3.56 µM (active)
IC50 (Cysteine protease ATG4B): 3.53 µM (active)
IC50 (Phospholipase A2): > 80 µM (inactive)
IC50 (Genome polyprotein): 3.41 µM (active)

CC(C)[C@H](CN1CCC[C@H]1CN1C(N)=NC[C@@H]1Cc1ccccc1)N1C[C@@H](Cc2ccccc2)N(CCc2ccc(Cl)c(Cl)c2)C1=N
IC50 [2]: > 20 µM (inactive)
IC50 (Melanocortin receptor 4): 7.16 µM (active)
IC50 [3]: > 64.6 µM (inactive)

Cc1ccc2nc3c(c(Nc4ccc5c(c4)OCCO5)c2c1)CCC3
IC50 (Cysteine protease ATG4B): 10.7 µM (active)
IC50 (Phospholipase A2): 7.53 µM (active)
AC50 [4]: 54.9 µM (active)

O=C(O)CC1=C(Nc2ccccc2)C(=O)N(c2ccccc2)C1c1ccc(Br)cc1 (stereo not given)
IC50 [5]: 5.55 µM (active)
IC50 [6]: 3.98 µM (active)

Cc1nnc(SCc2cnc(-c3ccc(C(C)C)cc3)s2)n1C
EC50 [7]: > 50 µM (active)
AC50 (HEK293): 4.43 µM (active)
IC50 [5]: 1.28 µM (active)
IC50 [6]: 10 µM (active)

O=C(Cc1cccc2cnccc12)NCc1ccc(Br)cc1
Ki [8]: 6.31 µM (active)
Ki [9]: 1.58 µM (active)

O=C1/C(=C/c2ccc([N+](=O)[O-])cc2)C=C(c2ccccc2)N1c1ccc(O)cc1
IC50 [1]: > 66.6 µM (inactive)
IC50 (Beta-galactosidase): > 66.6 µM (inactive)
IC50 (Melanocortin receptor 4): > 64.6 µM (inactive)
IC50 [3]: > 64.6 µM (inactive)

Cc1occc1C(=O)/C(C#N)=C/c1ccc(O)c(Br)c1
AC50 [10]: 7.25 µM (active)
IC50 [11]: 9.83 µM (active)
IC50 [12]: > 100 µM (inactive)
IC50 (Prothrombin): 12.1 µM (active)

Cc1ccccc1-c1cccc2nccn12
Ki (LIM domain kinase 1): 79.4 µM (active)
Ki [13]: 63.1 µM (active)
Ki [14]: 12.6 µM (active)
Ki [15]: 15.8 µM (active)
Ki [16]: 39.8 µM (active)
Ki [17]: 79.4 µM (active)

CCN1CCc2c(C#N)c(N3CCCCC3)nc(NCc3ccccc3)c2C1
EC50 [18]: 20.1 µM (active)
EC50 [19]: 17.9 µM (active)
CC50 (Vero): > 25 µM (active)

Cc1ccc(Sc2nnc(Cc3ccccc3)c3ccccc23)cc1
EC50 [20]: 1.95 µM (active)
EC50 [21]: > 60 µM (not active)
CC50 (Vero): > 25 µM (active)
